Paper PMC10945555, “Improving Activity of New Arylurea Agents against Multidrug-Resistant and Biofilm-Producing Staphylococcus epidermidis” (ACS Medicinal Chemistry Letters, 2024)
≈ marks a conversion by molar mass, not a printed value.

Key:
[1] = Microsomal stability assay; details: RLM, 60 min of incubation
Experimental: were treated with 100 μL of tested compound at the final concentration of 200 μM, and incubated at 37 °C for 1 h. Triton X-100 (2%) and PBS were used as positive and negative controls, respectively. After centrifugation at 3000 rpm for 3 min, 100 μL of the supernatants were transferred to a 96 well microtiter plate and the hemoglobin release was determined in a SpectraMax iD3 reader (Molecular Devices) by absorption at 540 nm.
2.3.4 Microsomal stability assay […]
following previously reported procedures.7 Tested compound was preincubated at 37 °C in a phosphate buffer (pH 7.4), containing rat liver microsomes (Sigma-Aldrich, Germany), at the concentration of 0.4 mg/mL. After 10 min, NADPH-regenerating system was added to initiate the reaction. At appropriate time points (0, 30 and 60 min), reaction was quenched with ice-cold methanol, containing the internal standard pentoxiphylline. Next samples were centrifuged and the supernatant was subjected to UPLC-MS analysis. From slope of the line on plot Ln (%remaining of parent compounds) vs time, t1/2 was determined. Clint was calculated from […]
experiment was run in duplicate. The metabolized drug verapamil was used as positive control […]
provided by Molecular Discovery Ltd. (Hertfordshire, UK). A highest probability of metabolic sites and metabolite structures were analysed by liver computational model. 8 […]

[2] = tested on: Acinetobacter baumannii ATCC 19606; assay: MIC, Gram-negative reference strain; assay type: cell-based; details: for MIC: Acinetobacter baumannii, ATCC19606
Experimental: (§1) 2 Biological assay protocols
(§2) Microbiological tests were carried out under aseptic conditions in a laminar chamber of the 2nd […]
(§3) (BioTectum 1.2, Alchem Poland). The assessment of antimicrobial activity was carried out for final compounds in the form of free bases, soluble in DMSO (Merck, Germany), at the initial […]
(§4) concentration of 1 mg/mL. […]
(§5) were provided by Cayman Chemical, USA.
(§6) The activity of all newly synthesized compounds was tested in vitro on a panel of selected reference strains from the American Type Culture Collection (ATCC) of Gram-positive […]
(§7) 2.2 Effect of evaluated compounds on planktonic cells
(§8) The susceptibility of three reference bacterial strains (Staphylococcus epidermidis ATCC […]
(§9) Table S1) and 81 clinical MDR S. epidermidis (Table S2) to the tested compounds was assessed by determining the MIC value (Minimal Inhibitory Concentration) by microdilution in a liquid medium in 96-well flat-bottom cell culture plates (Nest Biotechnology Scientific, USA). The antibacterial properties of the compo unds were tested in the concentration range from 50 µg/mL to 0.1 µg/mL by making a series of double dilutions of the compound in liquid Mueller -Hinton II Broth Cation Adjusted (MHB II, BBL TM, USA) according to the European Committee on […]
(§10) Antimicrobial Susceptibility Testing guidelines (EUCAST).2,3 The determinations were performed twice. The MIC50 and MIC90 values were determined for each of the tested

[3] = tested on: Escherichia coli ATCC 25922; assay: MIC, Gram-negative reference strain; assay type: cell-based; details: for MIC: Escherichia coli, ATCC25922
Experimental: as §1, §2, §3, §4, §5, §6, §7, §8, §9, §10

[4] = tested on: Pseudomonas aeruginosa ATCC 27853; assay: MIC, Gram-negative reference strain; assay type: cell-based; details: for MIC: Pseudomonas aeruginosa, ATCC27853, read-out: MIC P. aeruginosa
Experimental: as §1, §2, §3, §4, §5, §6, §7, §8, §9, §10

[5] = tested on: Staphylococcus epidermidis no. 44; assay: Real-time bacterial growth analysis; assay type: cell-based; details: real-time growth analysis and MBC/MIC ratio
Experimental: (reduction of navy blue resazurin to pink resorufin in the presence of metabolically active cells) compared to the negative (sterile medium without bacteria and compounds) and positive control (medium with bacteria).9 The minimal biofilm eradication concentration value was analyzed using a high throughput screening the MBEC Assay® Kit (Innovotech, Canada), formerly the Calgary Biofilm Device, according to the manufacturer's insert.10
2.4.1 Determination of biofilm viability by confocal laser scanning microscope (CLSM) […]
by the selected strains was observed using the confocal laser scanning microscopy technique (CLSM, model Inverted Microscope for Industry Leica DMi8, Wetzlar, Germany). Biofilms were grown on Millicell® EZ SLIDE slides (Merck, Germany)11 and incubated with FilmTracer™ SYPRO™ Ruby Biofilm Matrix Stain (ThermoFisher Scientific, USA).12 2.5 Evaluation of bacteriostatic/bactericidal properties […]
determining MBC (Minimal Bactericidal Concentration) values. The study was conducted in accordance with the guidelines of the Clinical and Laboratory Standards Institute (CLSI).13 The MBC value was assumed to be the concentration of the compound inhibiting the growth of strains in 99.9%. Then, the value of the MBC/MIC ratio was calculated to assess its bactericidal or bacteriostatic activity. […]
compound 25 and linezolid expressed as changes in OD600 over time. […]

Row | SMILES | Clin [1] | MIC A. baumannii [2] | MIC [2] | MIC E. coli [3] | MIC [3] | MIC P. aeruginosa [4] | MIC [4] | bacteriostatic/bactericidal properties [5]
1 | O=C(Nc1cccc(Cl)c1)NC1CCN(CCC(Oc2ccc(C(F)(F)F)cc2)c2cccs2)CC1 (stereo not drawn) [Compound 25] | 26.7 | exceeded 50 µg/mL | 50 µg/mL (≈ 92.9 µM) | exceeded 50 µg/mL | 50 µg/mL (≈ 92.9 µM) | exceeded 50 µg/mL | 50 µg/mL (≈ 92.9 µM) | bacteriostatic properties
2 | CC(=O)NC[C@H]1CN(c2ccc(N3CCOCC3)c(F)c2)C(=O)O1 [linezolid, reference compound] | – | – | 50 µg/mL (≈ 148 µM) | – | 50 µg/mL (≈ 148 µM) | – | 50 µg/mL (≈ 148 µM) | bacteriostatic properties
